The text below walks through data of US6150355A, “Phenylpiperidine derivative” (Kyowa Hakko Kogyo Co., Ltd., priority 1995, dated 2000).

One data set deals with ddy male mice. Briefly: Acute Toxicity Test (minimum lethal dose). The data set is classed as in vivo. To be noted: intraperitoneal, ddy male mice 20±1 g, mortality seven days after administration. The text has this: Test compounds were intraperitoneally administered to groups of ddy male mice weighing 20±1 g.
The next data set relates to male mice. Briefly: Evaluation Test of Analgesic Activity (acetic acid intraperitoneally, number of risings). Format: in vivo. Particulars: Mus musculus, po, 10 mg/kg orally, after 1 hour 0.7% acetic acid i.p. 0.1 ml per 10 g, number of risings for 5 minutes, 10 minutes after, vs control, read-out: Inhibition Rate. The protocol: Evaluation Test of Analgesic Activity
Test compounds (10 mg/kg) were orally administered to groups of male mice, each group consisting of 4 to 12 mice, and after 1 hour, the mice were administered intraperitoneally with a 0.7% acetic acid aqueous solution in a dose of 0.1 ml per weight of 10 g. Then, the number of the risings manifested for 5 minutes 10 minutes after the administration was compared with a control group to calculate inhibition rate.

Each structure is given as a SMILES string.

With `Cc1ccc2c(c1)C(N1CCC(O)(c3ccc(Cl)cc3)CC1)c1ccccc1CO2` (centres unmarked) [Compound 5, 11-[4-(4-Chlorophenyl)-4-hydroxypiperidine-1-yl]-2-methyl-6,11-dihydrodibenzo[b,e] oxepine], the “minimum lethal dose (MLD)” value in the data set with ddy male mice is above 100 mg/kg. Also, the inhibition in vivo at 10 mg/kg in the data set on male mice worked out at 72%.

Regarding `CC(O)c1ccc2c(c1)C(N1CCC(O)(c3ccccc3)CC1)c1ccccc1CO2` (centres unmarked) [Compound 22, 11-(4-Hydroxy-40phenylpiperidine-1-yl)-2-(1-hydroxyethyl)-6,11-dihydrodibenzo[b,e] oxepine], the “minimum lethal dose (MLD)” value in the data set with ddy male mice was above 100 mg/kg. In addition, the inhibition in vivo at 10 mg/kg with male mice came to 100%.

On to `Cc1ccc2c(c1)C(N1CCC(O)(c3cccc(C(F)(F)F)c3)CC1)c1ccccc1CO2` (centres unmarked) [Compound 4, 11-[4-Hydroxy-4-(3-trifluoromethylphenyl)piperidine-1-yl]-2-methyl-6,11-dihydrodibenzo[b,e] oxepine], for which the “minimum lethal dose (MLD)” value in the data set with ddy male mice is above 100 mg/kg. In addition, the inhibition in vivo at 10 mg/kg with male mice was 96%.

For `Cc1ccc2c(c1)C(N1CCC(O)(c3ccccc3)CC1)c1cccnc1CO2` (centres unmarked) [Compound 27, 5-(4-Hydroxy-4-phenylpiperidine-1-yl)-7-methyl-5,11-dihydrobenzo[3,4-b] oxepinopyridine], the inhibition in vivo at 10 mg/kg with male mice stood at 100%.

`OCc1ccc2c(c1)C(N1CCC(O)(c3ccccc3)CC1)c1ccccc1CO2` (centres unmarked) [Compound 19, 11-(4-Hydroxy-4-phenylpiperidine-1-yl)-2-hydroxymethyl-6,11-dihydrodibenzo[b,e] oxepine]: the “minimum lethal dose (MLD)” value in the data set on ddy male mice is given as above 100 mg/kg. Also, in the data set with male mice, the inhibition in vivo at 10 mg/kg was 76%.

For the compound `CCc1ccc2c(c1)C(N1CCC(O)(c3ccccc3)CC1)c1ccccc1CO2` (centres unmarked) [Compound 8, 2-Ethyl-11-(4-hydroxy-4-phenylpiperidine-1-yl)-6,11-dihydrodibenzo[b,e] oxepine], the “minimum lethal dose (MLD)” value in the data set with ddy male mice is given as above 100 mg/kg. In the data set with male mice, the inhibition in vivo at 10 mg/kg is 94%.

Take `OCc1ccc2c(c1)C(N1CCC(O)(c3cccc(C(F)(F)F)c3)CC1)c1ccccc1CO2` (centres unmarked) [Compound 24, 11-[4-Hydroxy-4-(3-trifluoromethylphenyl)piperidine-1-yl]-2-hydroxymethyl-6,11-dihydrodibenzo[b,e] oxepine]: the “minimum lethal dose (MLD)” value in the data set with ddy male mice was above 100 mg/kg. For the same compound, in the data set with male mice, the inhibition in vivo at 10 mg/kg came out at 100%.

As for `Cc1ccc2c(c1)C(N1CCC(O)(c3ccccc3)CC1)c1ccccc1CO2` (centres unmarked) [Compound 2, 11-(4-Hydroxy-4-phenylpiperidine-1-yl)-2-methyl-6,11-dihydrodibenzo[b,e] oxepine], the “minimum lethal dose (MLD)” value with ddy male mice is recorded as above 100 mg/kg. Further, the inhibition in vivo at 10 mg/kg in the data set on male mice came out at 83%.

For `Cc1cccc(C2(O)CCN(C3c4ccccc4COc4ccc(C)cc43)CC2)c1` (centres unmarked) [Compound 3, 11-[4-Hydroxy-4-(3-methylphenyl)piperidine-1-yl]-2-methyl-6,11-dihydrodibenzo[b,e] oxepine], the “minimum lethal dose (MLD)” value with ddy male mice is recorded as above 100 mg/kg. Moreover, the inhibition in vivo at 10 mg/kg with male mice was found to be 90%.
